The source of these data is US20260325533A1, “CDK INHIBITOR COMPOUNDS” (ALEKSIA THERAPEUTICS, INC., priority 2023, published 2026).

Holding throughout (assay type): biochemical
The target in one assay is CDK6/CCND1 (Homo sapiens, UniProt Q00534). In words: CDK6 homogeneous time-resolved fluorescence (HTRF) kinase assay. The conditions noted are these: CDK6/CCND. The protocol: A CDK homogeneous time-resolved fluorescence (HTRF) assay was used to assess the potency of the compounds described herein.
To an untreated 384-well microtiter plate (ProxiPlate) was added 100 nL 100×test compound in DMSO and 5 μL 2×CDK enzyme in assay buffer (50 mM HEPES, 1 mM EGTA, 10 mM MgCl2, 0.01% Tween 20, 2 mM DTT). The plate was centrifuged at 800 RPM for 1 min then incubated for 20 min at 23 °C. 2.5 μL per well of 4×ATP and 2.5 μL 4×ULight™-eIF4E-binding protein 1 (Thr37/46) Peptide substrate were added to all wells. After addition, the plates were centrifuged at 800 RPM for 1 min. The plates were incubated at 23 °C for 60 min. 5 μL per well 4×EDTA solution were added to each well to stop the reaction. 5 μL 4×LANCE Ultra Europium-anti-phospho-eIF4E-binding protein 1 (Thr37/46) antibody were added to each well and the plate was centrifuged for 1 min at 800 RPM. The plate was incubated for 60 min at 23 °C. Fluorescence was read at 340 nm excitation and 665 nm emission on an EnVision 2105 fluorescence reader. The final concentrations of reagents in the activity assay were 1 nM CDK6/CCND1, 1 mM ATP, 50 nM ULight™-eIF4E-binding protein 1 (Thr37/46) Peptide substrate, 1% DMSO, 10 mM EDTA, and 2 nM LANCE Ultra Europium-anti-phospho-eIF4E-binding protein 1 (Thr37/46).
Dose-response titrations were conducted by using an 11-point, half-logarithmic serial dilution scheme typically starting at 10 μM. Signals were reported as fluorescence units at 665 nm or the ratio of fluorescence units at 665 nm/fluorescence units at 615 nm. Signals are referred to below as “Lance signals”.
Using this assay, the IC50 values of example compounds were determined. Table 3 illustrates the IC50 for various Example compounds of Formula IA. Table 4 illustrates the IC50 for various other Example compounds of Formula I. ND=not determined.

The target in a further assay is CDK1/CCNB1 (Homo sapiens, UniProt P06493). In words: CDK1 homogeneous time-resolved fluorescence (HTRF) kinase assay. Summed up: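 Read-out: TR-FRET (Eu anti-phospho-4E-BP1 Thr37/46 antibody, 2 nM; 665 nm or 665/615 ratio) after 60 min phosphorylation of 50 nM ULight-peptide by 0.5 nM CDK1/CCNB1 at 1 mM ATP, 23 °C. Compound preincubated 20 min with enzyme; 1% DMSO.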
For orientation: TR-FRET usually uses a lanthanide donor and a delayed reading to cut background.

In another assay the target is CDK2/CCNE1 (Homo sapiens, UniProt P24941). Kind of assay: CDK2 homogeneous time-resolved fluorescence (HTRF) kinase assay. The method, boiled down:
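Compounds were titrated 11-point, half-log from typically 10 μM against 3 nM CDK2/cyclin E1 at 1 mM ATP, with a 20 min enzyme preincubation. Phosphorylation of 50 nM ULight-4E-BP1 peptide over 60 min at 23 °C was detected by europium anti-phospho antibody TR-FRET.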

The mark [1] stands for this setting: >250 nM marked x, read-out: CDK6/CCND IC50 >250 nM.
[2] abbreviates: x = IC50 25-250 nM, read-out: CDK6/CCND IC50 (25-250 nM).
[3] abbreviates: x = IC50 >250 nM, read-out: CDK6/CCND IC50 (>250 nM column).
The mark [4] stands for this setting: CDK1/CCNB, >250 nM marked x, read-out: CDK1/CCNB IC50 >250 nM.
[5] abbreviates: CDK2/CCNE, >250 nM marked x, read-out: CDK2/CCNE IC50 >250 nM.
Where [6] appears, read: CDK2/CCNE, 25-250 nM marked x, read-out: CDK2/CCNE IC50 25-250 nM.
[7] abbreviates: 0.5 nM CDK1/CCNB1, 1 mM ATP, read-out: CDK1/CCNB IC50 >250 nM.
[8] abbreviates: 3 nM CDK2/CCNE1, 1 mM ATP, read-out: CDK2/CCNE IC50 >250 nM.
[9] abbreviates: 3 nM CDK2/CCNE1, 1 mM ATP, read-out: CDK2/CCNE IC50 25-250 nM.

Each structure is given as a SMILES string. Like-named read-outs stand apart in the source and are kept apart here.

Sequence of CDK1/CCNB1 (P06493 whole entry): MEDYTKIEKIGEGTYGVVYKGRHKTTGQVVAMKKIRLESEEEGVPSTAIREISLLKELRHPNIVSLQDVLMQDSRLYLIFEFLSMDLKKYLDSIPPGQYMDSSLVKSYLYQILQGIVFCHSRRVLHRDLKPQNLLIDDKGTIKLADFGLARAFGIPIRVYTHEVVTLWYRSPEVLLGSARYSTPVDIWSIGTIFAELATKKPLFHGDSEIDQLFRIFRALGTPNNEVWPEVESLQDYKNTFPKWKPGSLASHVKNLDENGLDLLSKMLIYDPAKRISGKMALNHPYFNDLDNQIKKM
Sequence of CDK1/CCNB1 (P14635 whole entry partner): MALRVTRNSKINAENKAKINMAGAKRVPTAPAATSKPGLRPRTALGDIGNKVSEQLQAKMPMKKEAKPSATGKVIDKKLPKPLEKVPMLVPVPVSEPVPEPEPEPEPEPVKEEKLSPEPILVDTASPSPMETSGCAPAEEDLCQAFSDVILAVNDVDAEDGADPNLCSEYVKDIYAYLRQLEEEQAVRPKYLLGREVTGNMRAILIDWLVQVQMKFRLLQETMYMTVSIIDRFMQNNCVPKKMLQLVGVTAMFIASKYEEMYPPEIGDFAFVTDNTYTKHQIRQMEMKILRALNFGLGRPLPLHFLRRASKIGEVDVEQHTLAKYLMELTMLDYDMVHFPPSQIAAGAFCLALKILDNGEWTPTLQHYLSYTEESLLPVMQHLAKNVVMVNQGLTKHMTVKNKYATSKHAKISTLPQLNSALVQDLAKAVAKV
Sequence of CDK6/CCND1 (Q00534 whole entry): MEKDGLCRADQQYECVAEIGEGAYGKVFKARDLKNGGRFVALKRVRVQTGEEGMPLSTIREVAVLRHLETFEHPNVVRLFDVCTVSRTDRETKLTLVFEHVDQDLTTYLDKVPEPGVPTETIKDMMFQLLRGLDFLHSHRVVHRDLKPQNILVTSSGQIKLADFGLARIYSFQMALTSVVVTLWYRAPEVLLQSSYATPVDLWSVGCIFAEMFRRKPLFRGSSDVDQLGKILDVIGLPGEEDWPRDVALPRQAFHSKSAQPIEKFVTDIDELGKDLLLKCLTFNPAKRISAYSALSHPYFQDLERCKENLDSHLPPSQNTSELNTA
Sequence of CDK6/CCND1 (P24385 whole entry partner): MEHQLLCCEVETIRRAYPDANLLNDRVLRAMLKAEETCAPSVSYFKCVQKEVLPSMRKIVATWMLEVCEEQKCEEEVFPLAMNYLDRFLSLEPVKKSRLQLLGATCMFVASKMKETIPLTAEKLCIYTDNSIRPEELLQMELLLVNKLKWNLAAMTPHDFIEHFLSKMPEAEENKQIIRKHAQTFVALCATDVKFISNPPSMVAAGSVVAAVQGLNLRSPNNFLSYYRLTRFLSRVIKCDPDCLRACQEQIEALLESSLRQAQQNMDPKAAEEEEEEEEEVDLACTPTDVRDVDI

Regarding `CC(C)S(=N)(=O)c1ccc(Nc2cc3c(C#Cc4ccc5c(c4)NC(=O)C5(C)CCO)nccc3cn2)cc1` (single isomer, unassigned) [Ex 287, 3-(2-hydroxyethyl)-3-methyl-6-((7-((4-(propan-2-ylsulfonimidoyl)phenyl)amino)-2,6-naphthyridin-1-yl)ethynyl)indolin-2-one], the IC50 at CDK6/CCND1 (setting [1]) is greater than 250 nM.

For `CC(C)S(=N)(=O)c1ccc(Nc2cc3c(C#Cc4ccc5c(c4)NC(=O)C5(C)O)nccc3cn2)cc1` (single isomer, unassigned) [Ex 292, 3-hydroxy-3-methyl-6-((7-((4-(propan-2-ylsulfonimidoyl)phenyl)amino)-2,6-naphthyridin-1-yl)ethynyl)indolin-2-one], the IC50 on CDK6/CCND1 (setting [1]) was greater than 250 nM.

Turning to `CS(=N)(=O)c1ccc(Nc2cc3c(C#Cc4ccc5c(c4)NC(=O)C54CC4)nccc3cn2)cc1` (single isomer, unassigned) [Ex 359, 6'-((7-((4-(S-methylsulfonimidoyl)phenyl)amino)-2,6-naphthyridin-1-yl)ethynyl)spiro[cyclopropane-1,3'-indolin]-2'-one], the IC50 at CDK6/CCND1 (setting [2]) fell in the range of 25 to 250 nM.

For the compound `N=S(=O)(c1ccc(Nc2cc3c(C#Cc4ccc5c(c4)NC(=O)C54CCC4)nccc3cn2)cc1)C1CC1` (single isomer, unassigned) [Ex 365, 6'-((7-((4-(cyclopropanesulfonimidoyl)phenyl)amino)-2,6-naphthyridin-1-yl)ethynyl)spiro[cyclobutane-1,3'-indolin]-2'-one], at CDK6/CCND1 (setting [2]), the IC50 lay in the range of 25 to 250 nM.

On to `CCS(=N)(=O)c1ccc(Nc2cc3c(C#Cc4ccc5c(c4)NC(=O)C54CCC4)nccc3cn2)cc1` (single isomer, unassigned) [Ex 367, 6'-((7-((4-(ethylsulfonimidoyl)phenyl)amino)-2,6-naphthyridin-1-yl)ethynyl)spiro[cyclobutane-1,3'-indolin]-2'-one], for which the IC50 at CDK6/CCND1 (setting [3]) was greater than 250 nM. Consider `CC1(C)C(=O)Nc2cc(C#Cc3nccc4cnc(Nc5ccc(S(C)(=N)=O)cc5)cc34)ccc21` (single isomer, unassigned) [Ex 452, 3,3-dimethyl-6-((7-((4-(S-methylsulfonimidoyl)phenyl)amino)-2,6-naphthyridin-1-yl)ethynyl)indolin-2-one], for which the IC50 at CDK6/CCND1 (setting [2]) is 25 to 250 nM.

Take `CC(C)S(=N)(=O)c1ccc(Nc2cc3c(C#Cc4ccc5c(c4)NC(=O)C5(C)C)nccc3cn2)cc1` (single isomer, unassigned) [Ex 456, 3,3-dimethyl-6-((7-((4-(propan-2-ylsulfonimidoyl)phenyl)amino)-2,6-naphthyridin-1-yl)ethynyl)indolin-2-one]: the IC50 on CDK6/CCND1 (setting [3]) was greater than 250 nM. On the same count and under the same terms, under `CC1(CO)C(=O)Nc2cc(C#Cc3nccc4cnc(Nc5ccc(S(C)(=O)=O)cc5)cc34)ccc21` (single isomer, unassigned) [Example 373, 3-(hydroxymethyl)-3-methyl-6-((7-((4-(methylsulfonyl)phenyl)amino)-2,6-naphthyridin-1-yl)ethynyl)indolin-2-one] stands greater than 250 nM. Turning to `C=CS(=O)(=O)N1CCC(Nc2cc3c(N4CCCCC4)nccc3cn2)C1` (stereo not drawn) [Example 9, 5-(piperidin-1-yl)-N-(1-(vinylsulfonyl)pyrrolidin-3-yl)-2,6-naphthyridin-3-amine], the IC50 at CDK1/CCNB1 (setting [4]) and at CDK2/CCNE1 (setting [5]) was greater than 250 nM in each case.

For `C=CS(=O)(=O)N1CCC(Nc2cc3c(N4CCC(F)(F)CC4)nccc3cn2)CC1` [Example 10, 5-(4,4-difluoropiperidin-1-yl)-N-(1-(vinylsulfonyl)piperidin-4-yl)-2,6-naphthyridin-3-amine], the IC50 is greater than 250 nM on CDK1/CCNB1 (setting [4]) and 25 to 250 nM on CDK2/CCNE1 (setting [6]). On to `CS(=O)(=O)N1CCC(Nc2cc3c(C(=O)N4CCC(O)CC4)nccc3cn2)CC1` [Example 12, (4-hydroxypiperidin-1-yl)(7-((1-(methylsulfonyl)piperidin-4-yl)amino)-2,6-naphthyridin-1-yl)methanone], for which the IC50 at CDK1/CCNB1 (setting [4]) and on CDK2/CCNE1 (setting [5]) was greater than 250 nM throughout. Regarding `N#CC1CCN(c2nccc3cnc(Nc4cccc(OS(=O)(=O)F)c4)cc23)CC1` [Example 13, 3-((5-(4-cyanopiperidin-1-yl)-2,6-naphthyridin-3-yl)amino)phenyl sulfurofluoridate], the IC50 at CDK1/CCNB1 and against CDK2/CCNE1 was greater than 250 nM throughout.

As for `N#CC1CCN(c2nccc3cnc(Nc4ccc(OS(=O)(=O)F)cc4)cc23)CC1` [Example 14, 4-((5-(4-cyanopiperidin-1-yl)-2,6-naphthyridin-3-yl)amino)phenyl sulfurofluoridate], the IC50 against CDK1/CCNB1 and on CDK2/CCNE1 was greater than 250 nM each time. As to `N#CC1CCN(c2nccc3cnc(Nc4ccc(C(=O)NC5CCSC5=O)cc4)cc23)CC1` (stereo not drawn) [Example 16, 4-((5-(4-cyanopiperidin-1-yl)-2,6-naphthyridin-3-yl)amino)-N-(2-oxotetrahydrothiophen-3-yl)benzamide], the IC50 on CDK1/CCNB1 (setting [4]) and on CDK2/CCNE1 (setting [5]) was greater than 250 nM in each case. `CS(=O)(=O)N1CCC(Nc2cc3c(N4CCCCC4)nc(CO)cc3cn2)CC1` [Example 17, (7-((1-(methylsulfonyl)piperidin-4-yl)amino)-1-(piperidin-1-yl)-2,6-naphthyridin-3-yl)methanol]: the IC50 on CDK1/CCNB1 (setting [4]) is greater than 250 nM; at CDK2/CCNE1 (setting [6]), 25 to 250 nM. For the compound `CS(=O)(=O)N1CCC(Nc2cc3c(N4CCCCC4)nc(CCO)cc3cn2)CC1` [Example 19, 2-(7-((1-(methylsulfonyl)piperidin-4-yl)amino)-1-(piperidin-1-yl)-2,6-naphthyridin-3-yl)ethan-1-ol], the values for the IC50 on CDK1/CCNB1 (setting [4]) and at CDK2/CCNE1 (setting [6]) were greater than 250 nM and 25 to 250 nM, respectively. Turning to `Cc1cc2cnc(NC3CCN(S(C)(=O)=O)CC3)cc2c(N2CCCCC2)n1` [Example 25, 7-methyl-N-(1-(methylsulfonyl)piperidin-4-yl)-5-(piperidin-1-yl)-2,6-naphthyridin-3-amine], the IC50 on CDK1/CCNB1 (setting [4]) and on CDK2/CCNE1 (setting [5]) was greater than 250 nM throughout. As to `CS(=O)(=O)c1ccc(Nc2cc3c(C4=CCCCC4)ccnc3cn2)cc1` [Example 951, 4-(cyclohex-1-en-1-yl)-N-(4-(methylsulfonyl)phenyl)-1,7-naphthyridin-6-amine], the IC50 on CDK1/CCNB1 (setting [7]) and on CDK2/CCNE1 (setting [8]) was greater than 250 nM in each case. As to `CS(=O)(=O)c1ccc(Nc2ncc3cccc(C4=CCCCC4)c3n2)cc1` [Example 952, 8-(cyclohex-1-en-1-yl)-N-(4-(methylsulfonyl)phenyl)quinazolin-2-amine], the IC50 on CDK1/CCNB1 (setting [7]) is greater than 250 nM; at CDK2/CCNE1 (setting [9]), 25 to 250 nM. With `CS(=O)(=O)c1ccc(Nc2cc3c(N4CCC(C#N)CC4)ccnc3cn2)cc1` [Example 959, 1-(6-((4-(methylsulfonyl)phenyl)amino)-1,7-naphthyridin-4-yl)piperidine-4-carbonitrile], the IC50 on CDK1/CCNB1 (setting [7]) and at CDK2/CCNE1 (setting [8]) was greater than 250 nM throughout. As to `CS(=O)(=O)c1ccc(Nc2cc3c(N4CCC(C#N)CC4)ncnc3cn2)cc1` [Example 960, 1-(6-((4-(methylsulfonyl)phenyl)amino)pyrido [3,4-d]pyrimidin-4-yl)piperidine-4-carbonitrile], the IC50 on CDK1/CCNB1 (setting [7]) and at CDK2/CCNE1 (setting [8]) was greater than 250 nM each time. On to `CS(=O)(=O)c1ccc(Nc2ncc3cccc(N4CCC(C#N)CC4)c3n2)cc1` [Example 961, 1-(2-((4-(methylsulfonyl)phenyl)amino)quinazolin-8-yl) piperidine-4-carbonitrile], for which the IC50 was greater than 250 nM at CDK1/CCNB1 (setting [7]) and 25 to 250 nM on CDK2/CCNE1 (setting [9]).
